In US7368575B2, “6-alkylamino-2,2′-disubstituted-7,8-disubstituted-2H-1-benzopyran derivatives as 5-lipoxygenase inhibitor” (Korea Research Institute of Chemical Technology, priority 2004, dated 2008):

What was measured:
5-LO (5-lipoxygenase) = molecular target: T1, 5-LO (5-lipoxygenase) (Homo sapiens, UniProt P09917); assay: 5-LO enzyme assay using a FOX reagent; format: biochemical; settings: read-out: 5-LO (% inhibition at 1 μM); test sample 1 μM; lysates from 5-LO expressing insect cells; table does not say FOX or 234 nm readout
T1 construct: made in house; host or cells: insect cells (lysate, 7 μg)
T1 sequence (P09917 1-674): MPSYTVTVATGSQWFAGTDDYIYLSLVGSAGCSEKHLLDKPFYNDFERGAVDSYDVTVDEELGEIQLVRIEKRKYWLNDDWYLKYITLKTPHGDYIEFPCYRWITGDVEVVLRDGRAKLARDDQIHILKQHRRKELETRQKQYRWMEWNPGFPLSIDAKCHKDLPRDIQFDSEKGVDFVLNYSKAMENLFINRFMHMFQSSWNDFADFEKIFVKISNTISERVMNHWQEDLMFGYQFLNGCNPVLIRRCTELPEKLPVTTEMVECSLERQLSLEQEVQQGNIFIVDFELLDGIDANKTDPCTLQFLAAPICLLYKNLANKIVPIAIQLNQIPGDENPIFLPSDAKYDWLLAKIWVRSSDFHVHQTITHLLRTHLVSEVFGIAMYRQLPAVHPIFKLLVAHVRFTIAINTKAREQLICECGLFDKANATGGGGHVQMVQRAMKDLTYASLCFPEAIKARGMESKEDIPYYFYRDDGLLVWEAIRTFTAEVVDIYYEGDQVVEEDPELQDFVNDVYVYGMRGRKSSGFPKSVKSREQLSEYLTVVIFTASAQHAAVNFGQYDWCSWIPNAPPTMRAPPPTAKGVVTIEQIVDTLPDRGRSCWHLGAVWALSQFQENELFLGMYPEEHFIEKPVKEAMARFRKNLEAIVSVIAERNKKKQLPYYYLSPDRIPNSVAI
Procedure: Each test sample was added to lysates (7 μg) obtained from 5-LO expressing insect cells at a final concentration of 1 μM and reacted at room temperature for 3 min. Arachidonic acid as an enzyme substrate (40 μM) was added thereto and further reacted at room temperature for 4 min. Then, a FOX reagent (sulfuric acid 25 mM, xylenol orange 100 μM, FeSO4 100 μM; methanol: water=9:1) 100 μl was added thereto, and the absorbance of the reaction mixture was measured at 575 nm after 5 min.

[1] = system: arachidonic acid-induced ear inflammation (mouse ear edema model); assay: Mouse ear edema model (arachidonic acid-induced; ear thickness and MPO activity); format: in vivo; settings: ICR mouse, oral, 1 hr before arachidonic acid treatment, versus arachidonic acid-only control
Procedure: The inside of the right ear of ICR mouse (6 week old) was treated with 2 mg of arachidonic acid dissolved in 20 μl of acetone for 1 hr to induce an inflammation.
After 1 hr, the difference between the right ear treated with arachidonic acid and the nontreated left ear was measured with a microgauge. Further, to measure the amount of neutrophil penetrated into a tissue as a primary marker for inflammation induction, the myeloperoxidase (MPO) activity was measured. In particular, the tissue obtained from the arachidonic acid-treated right ear was homogenized in 50 mM phosphate buffer solution (pH 6.0) supplemented with 0.5% hexadecyltrimethylammonium bromide (HTAB), subjected to centrifugation, and then, the MPO activity of the supernatant was measured.
To measure in vivo activity of each test compound, each compound was dissolved in 0.5% methylcellulose (10 mL/kg) and orally administered to the mice 1 hr before the arachidonic acid treatment. After the arachidonic acid was treated for 1 hr, the ear thickness and MPO activity were measured, and in vivo activity of the test compound was estimated by comparing them with those of a control which was treated with arachidonic acid only without the test compoud.

Structure (SMILES)	inhibition at 1 µM (5-LO (5-lipoxygenase)) [%]	Animal model (% inhibition) Thickness (T) % ([1]; ear thickness) [%]	Animal model (% inhibition) MPO % ([1]; myeloperoxidase activity of ear tissue) [%]
CCCC1(C)C=Cc2cc(NCc3ccccc3)ccc2O1 (stereo not shown) [1-81]	61	–	–
COc1ccc(CNc2ccc3c(c2)C=CC(C)(CCc2ccccc2)O3)cc1 (stereo not shown) [1-124]	84	–	–
COc1ccc(CCC2(C)C=Cc3cc(NCc4ccccc4)ccc3O2)cc1 (stereo not shown) [1-161]	72	–	–
COc1ccc(CNc2cc3c(cc2C)OC(C)(CCc2ccccc2)C=C3)cc1 (stereo not shown) [1-324]	51	–	–
CC(c1cc2ccccc2s1)N(O)C(N)=O (stereo not shown) [Zileuton, reference compound]	85	67	38
